Measurements reported in patent US8063022B1, “Methods for preventing formation of inhibitory antibodies in the setting of gene therapy” (priority 1999, dated 2011).
Like-named read-outs stand apart in the source and are kept apart here.

Columns and labels:
[1] = test system: Hemophilia B knockout mice; experiment: Western blot for antibody to murine F.IX in hemophilic mice injected with AAV-mF.IX; assay type: in vivo, mouse; settings: up to five months of observation
Experimental: (§1) Hemophilia B knockout mice were injected intramuscularly with AAV mF.IX (1×10^11) at day 0, without or with immunomodulation therapy. The mice were bled at monthly time points in citrate. The assays which were performed included a clotting based-apTT (measure of correction of hemostatic defect) assay and Bethesda titer (1 BU defined as 50% residual FIX in a 2 hour 50:50 mix). In addition, antibody assays, Western blot analysis and ELISA assays were performed. The immunomodulatory strategies used to address formation of antibodies to the transgene product were as follows: […]

[2] = test system: Hemophilia B knockout mice; assay type: in vivo, mouse; settings: for Bethesda titer of AAV-F.IX treated mice: values of individual mice; for correction of the aPTT (in words): hemophilia B mice injected with AAV-mF.IX, with or without immunomodulation
Experimental: A cohort of six mice were injected intramuscularly with an adeno-associated virus (AAV) vector encoding the murine F.IX transgene (total dose 1×10^11 vector genomes/mouse). Mice were bled at monthly intervals via tail vein transection, and clotting times of plasma were measured by aPTT assay. […] Two other cohorts of mice received immunomodulation around the time of vector administration in an effort to suppress inhibitor formation. One cohort (n=4) received anti-CD40L antibody at a total dose of 0.4 mg per mouse given in four divided doses (0.1 mg at days -3, 0, 3, 6) while the other cohort received cyclophosphamide (CYP, n=4) at doses of 50 mg/kg per mouse biweekly at four time points.
as §1

`O=P1(N(CCCl)CCCl)NCCCO1` (centres unmarked) [CYP, cyclophosphamide] was tested, and the “antibody to murine F.IX on Western blot (in words)” value [1] was “did not develop antibodies”, the “Bethesda titer of AAV-F.IX treated mice” value ([2]; 1 month after vector) was 0/0/0 and the “Bethesda titer of AAV-F.IX treated mice” value ([2]; 2 months after vector) was 0/0/0. The “period over which aPTT correction was maintained” value ([2]; after vector injection) was “greater than ten months”, the aPTT ([2]; all mice at one month after vector, normal 22-39 s) was 28.9 to 30.9 s and the “animals with no evidence of inhibitor antibody formation” value ([2]; four doses at two week intervals, at least five months after vector) was 3/3. For the same compound, the “correction of the aPTT (in words)” value [2] was “nearly complete correction” and the “correction of the aPTT (in words)” value ([2]; listed as cyclophosphamide) was “sustained correction of the aPTT”.
